Experimental data published in ChEMBL document CHEMBL1201862, “PubChem BioAssay data set” (2004).
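In this assay, cells in 96-well plates receive the compound at five concentrations for 48 hours. Endpoints are linearly interpolated between the surrounding concentrations. At the GI50, growth is halved.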 Calls of active or inactive are those of the source. Cut-off read from the data, not from the text of the source: active = GI50 up to about 1.1 µM and inactive = higher.

Legend:
Assay in all cases: growth of human tumour cells (NCI), 48 h
786-0 = system: 786-0
A498 = system: A498
A549 = system: A549
ACHN = system: ACHN
BT-549 = system: BT-549
CAKI-1 = system: CAKI-1
CCRF-CEM = system: CCRF-CEM
COLO 205 = system: COLO 205
DU-145 = system: DU-145
EKVX = system: EKVX
HCC 2998 = system: HCC 2998
HCT-116 = system: HCT-116
HCT-15 = system: HCT-15
HL-60 = system: HL-60
HOP-62 = system: HOP-62
HOP-92 = system: HOP-92
HT-29 = system: HT-29
Hs-578T = system: Hs-578T
IGROV-1 = system: IGROV-1
K562 = system: K562
KM12 = system: KM12
M14 = system: M14
MCF7 = system: MCF7
MDA-MB-231 = system: MDA-MB-231
MDA-MB-435 = system: MDA-MB-435
MOLT-4 = system: MOLT-4
Malme-3M = system: Malme-3M
NCI-H226 = system: NCI-H226
NCI-H23 = system: NCI-H23
NCI-H460 = system: NCI-H460
NCI-H522 = system: NCI-H522
NCI/ADR-RES = system: NCI/ADR-RES
OVCAR-3 = system: OVCAR-3
OVCAR-4 = system: OVCAR-4
OVCAR-5 = system: OVCAR-5
OVCAR-8 = system: OVCAR-8
PC-3 = system: PC-3
RPMI-8226 = system: RPMI-8226
RXF 393 = system: RXF 393
SF-268 = system: SF-268
SF-295 = system: SF-295
SF-539 = system: SF-539
SK-MEL-28 = system: SK-MEL-28
SK-MEL-2 = system: SK-MEL-2
SK-MEL-5 = system: SK-MEL-5
SK-OV-3 = system: SK-OV-3
SN12C = system: SN12C
SNB-19 = system: SNB-19
SNB-75 = system: SNB-75
SR = system: SR
SW-620 = system: SW-620
T47D = system: T47D
TK-10 = system: TK-10
U-251 = system: U-251
UACC-257 = system: UACC-257
UACC-62 = system: UACC-62
UO-31 = system: UO-31

SMILES: CCN(CC)Cc1cc(Nc2c3ccccc3nc3c4ccccc4n(C)c23)cc(CN(CC)CC)c1O
- GI50 (786-0): 3.48 µM (inactive)
- GI50 (A498): 6.07 µM (inactive)
- GI50 (A549): 8.43 µM (inactive)
- GI50 (ACHN): 5.43 µM (inactive)
- GI50 (BT-549): 2 µM (inactive)
- GI50 (CAKI-1): 13.5 µM (inactive)
- GI50 (CCRF-CEM): 2.4 µM (inactive)
- GI50 (COLO 205): 2.77 µM (inactive)
- GI50 (DU-145): 8.67 µM (inactive)
- GI50 (EKVX): 4.59 µM (inactive)
- GI50 (HCC 2998): 5.11 µM (inactive)
- GI50 (HCT-116): 2.89 µM (inactive)
- GI50 (HCT-15): 4.1 µM
- GI50 (HL-60): 2.31 µM (inactive)
- GI50 (HOP-62): 4.4 µM (inactive)
- GI50 (HOP-92): 4.6 µM (inactive)
- GI50 (HT-29): 3.41 µM (inactive)
- GI50 (Hs-578T): 6.22 µM (inactive)
- GI50 (IGROV-1): 9.98 µM (inactive)
- GI50 (K562): 2.76 µM (inactive)
- GI50 (KM12): 6.58 µM (inactive)
- GI50 (M14): 1.76 µM (inactive)
- GI50 (MCF7): 3.61 µM (inactive)
- GI50 (MDA-MB-231): 3.03 µM (inactive)
- GI50 (MDA-MB-435): 3.01 µM (inactive)
- GI50 (MOLT-4): 1.63 µM (inactive)
- GI50 (Malme-3M): 2.74 µM (inactive)
- GI50 (NCI-H226): 11.2 µM (inactive)
- GI50 (NCI-H23): 9.64 µM (inactive)
- GI50 (NCI-H460): 3.89 µM (inactive)
- GI50 (NCI-H522): 1.75 µM (inactive)
- GI50 (NCI/ADR-RES): 2.91 µM (inactive)
- GI50 (OVCAR-3): 2.43 µM (inactive)
- GI50 (OVCAR-4): 4.43 µM (inactive)
- GI50 (OVCAR-5): 6.84 µM (inactive)
- GI50 (OVCAR-8): 4.39 µM (inactive)
- GI50 (PC-3): 2.42 µM (inactive)
- GI50 (RPMI-8226): 2.1 µM (inactive)
- GI50 (RXF 393): 3.16 µM (inactive)
- GI50 (SF-268): 6.78 µM (inactive)
- GI50 (SF-295): 5.35 µM (inactive)
- GI50 (SF-539): 3.18 µM (inactive)
- GI50 (SK-MEL-28): 2.37 µM (inactive)
- GI50 (SK-MEL-2): 2.67 µM (inactive)
- GI50 (SK-MEL-5): 1.65 µM (inactive)
- GI50 (SK-OV-3): 14.4 µM (inactive)
- GI50 (SN12C): 6.61 µM (inactive)
- GI50 (SNB-19): 12.2 µM (inactive)
- GI50 (SNB-75): 12 µM (inactive)
- GI50 (SR): 2.82 µM (inactive)
- GI50 (SW-620): 3.12 µM (inactive)
- GI50 (T47D): 3.18 µM (inactive)
- GI50 (TK-10): 10.9 µM (inactive)
- GI50 (U-251): 5.27 µM (inactive)
- GI50 (UACC-257): 2.73 µM (inactive)
- GI50 (UACC-62): 2.81 µM (inactive)
- GI50 (UO-31): 2.12 µM (inactive)
